In ChEMBL document CHEMBL4673334, “In Vivo Biological Evaluation of a Synthetic Royleanone Derivative as a Promising Fast-Acting Trypanocidal Agent by Inducing Mitochondrial-Dependent Necrosis” (J Nat Prod, 2020) one finds IC50, Activity and inhibition data, which are given here for eight compounds.

A word on the IC50: it is the concentration that inhibits the measured activity by half. A word on the inhibition: it is the relative decrease from the control value, in per cent.

Active and inactive are the calls of the source. The rule behind the calls is not given here.

Data set [1] has as its system Trypanosoma cruzi. As to the kind of experiment: Antitrypanosomal activity against Trypanosoma cruzi TINF/CH/1956/Tulahuen (DTU VI) epimastigote form assessed as parasite growth inhibition incubated for 48 hrs by resazurin dye based assay. It counts as functional, organism-based. On the technique in general: Alamar Blue is a resazurin reagent that responds to reducing activity.

The subject of data set [2] is Vero. The data set can be described thus: Cytotoxicity against African green monkey Vero cells assessed as reduction in cell viability after 48 hrs by resazurin dye based assay. The conditions noted are these: Chlorocebus sabaeus.
The subject of data set [3] is Trypanosoma cruzi. As to the kind of experiment: Antitrypanosomal activity against Trypanosoma cruzi MHOM/Pe/2011/Arequipa(DTU V) epimastigote form assessed as parasite growth inhibition incubated for 48 hrs by resazurin dye based assay. In kind it is functional, organism-based.
Data set [4] concerns Trypanosoma cruzi. The data set can be described thus: Antitrypanosomal activity against Trypanosoma cruzi IRHOD/CO/2008/SN3 (DTU I) epimastigote form assessed as parasite growth inhibition incubated for 48 hrs by resazurin dye based assay. In kind it is functional, organism-based.
Data set [5] relates to Trypanosoma cruzi. As to the kind of experiment: Antitrypanosomal activity against Trypanosoma cruzi MHOM/Pe/2011/Arequipa(DTU V) amastigote form infected in BALB/c mouse assessed as parasite free organ tissue ratio at 20 mg/kg, po administered for 5 days starting at 9 days post infection and measured up to 145 days post infection by PCR analysis relative to control. It counts as functional. Conditions: time 5 day.

The nature of data set [6]: Toxicity in BALB/c mouse infected with Trypanosomal Trypanosoma cruzi MHOM/Pe/2011/Arequipa(DTU V) assessed as effect on ALP level at 20 mg/kg, po administered for 5 days starting at 9 days post infection and measured after 2 days post treatment. In kind it is organism-based. Conditions: in vivo, 120 h, time 5 day.
Data set [7] concerns Trypanosoma cruzi. As to the kind of experiment: Antitrypanosomal activity against Trypanosoma cruzi MHOM/Pe/2011/Arequipa(DTU V) amastigote form infected in BALB/c mouse assessed as reactivation parasitaemia at 20 mg/kg, po administered for 5 days starting at 9 days post infection and measured up to 145 days post infection relative to control. In kind it is functional. Conditions: time 5 day.

Data set [8] in a line: Toxicity in BALB/c mouse infected with Trypanosomal Trypanosoma cruzi MHOM/Pe/2011/Arequipa(DTU V) assessed as effect on uric acid level at 20 mg/kg, po administered for 5 days starting at 100 days post infection and measured after 2 days post treatment. In kind it is organism-based. The conditions noted are these: in vivo, 120 h, time 5 day.
The test system of data set [9] is Trypanosoma cruzi. The data set can be described thus: Antitrypanosomal activity against Trypanosoma cruzi MHOM/Pe/2011/Arequipa(DTU V) amastigote form infected in BALB/c mouse assessed as reactivation parasitaemia at 20 mg/kg, po administered for 5 days starting at 100 days post infection and measured up to 145 days post infection relative to control. It counts as functional. Conditions: time 5 day.

Data set [10] in a line: Toxicity in BALB/c mouse infected with Trypanosomal Trypanosoma cruzi MHOM/Pe/2011/Arequipa(DTU V) assessed as effect on AST/GOT level at 20 mg/kg, po administered for 5 days starting at 9 days post infection and measured after 2 days post treatment. The conditions noted are these: in vivo, 120 h, time 5 day. In kind it is organism-based.
Data set [11] is described as follows: Toxicity in BALB/c mouse infected with Trypanosomal Trypanosoma cruzi MHOM/Pe/2011/Arequipa(DTU V) assessed as effect on LDH level at 20 mg/kg, po administered for 5 days starting at 100 days post infection and measured after 2 days post treatment. It counts as organism-based. The conditions noted are these: in vivo, 120 h, time 5 day.
In data set [12] the test system is Trypanosoma cruzi. As to the kind of experiment: Inhibition of nucleic acid level in Trypanosoma cruzi MHOM/Pe/2011/Arequipa(DTU V) epimastigote form at IC25 concentration after 72 hrs by Rho (FITC-A) staining based flow cytometric analysis. It counts as functional. On the technique in general: In flow cytometry, cells or beads pass a laser one at a time.
A short description of data set [13]: Toxicity in BALB/c mouse infected with Trypanosomal Trypanosoma cruzi MHOM/Pe/2011/Arequipa(DTU V) assessed as effect on urea level at 20 mg/kg, po administered for 5 days starting at 9 days post infection and measured after 2 days post treatment. In kind it is organism-based. Conditions: in vivo, 120 h, time 5 day.
Data set [14] concerns Trypanosoma cruzi. The data set can be described thus: Antitrypanosomal activity against Trypanosoma cruzi MHOM/Pe/2011/Arequipa(DTU V) amastigote form infected in BALB/c mouse assessed as parasite free organ tissue ratio at 20 mg/kg, po administered for 5 days starting at 100 days post infection and measured up to 145 days post infection by PCR analysis relative to control. In kind it is functional. Conditions: time 5 day.

The nature of data set [15]: Toxicity in BALB/c mouse infected with Trypanosomal Trypanosoma cruzi MHOM/Pe/2011/Arequipa(DTU V) assessed as reduction in weight at 20 mg/kg, po administered for 5 days starting at 9 days post infection and measured up to 145 days post infection. The conditions noted are these: in vivo, 120 h, time 5 day. In kind it is organism-based.
Data set [16] is described as follows: Toxicity in BALB/c mouse infected with Trypanosomal Trypanosoma cruzi MHOM/Pe/2011/Arequipa(DTU V) assessed as effect on ALT/GPT level at 20 mg/kg, po administered for 5 days starting at 100 days post infection and measured after 2 days post treatment. In kind it is organism-based. Conditions: in vivo, 120 h, time 5 day.
Data set [17] is described as follows: Toxicity in BALB/c mouse infected with Trypanosomal Trypanosoma cruzi MHOM/Pe/2011/Arequipa(DTU V) assessed as reduction in weight at 20 mg/kg, po administered for 5 days starting at 100 days post infection and measured up to 145 days post infection. It counts as organism-based. Conditions: in vivo, 120 h, time 5 day.
Data set [18] in a line: Toxicity in BALB/c mouse infected with Trypanosomal Trypanosoma cruzi MHOM/Pe/2011/Arequipa(DTU V) assessed as reduction in survival at 20 mg/kg, po administered for 5 days starting at 9 days post infection and measured up to 145 days post infection. In kind it is organism-based. The conditions noted are these: in vivo, 120 h, time 5 day.
Data set [19] in a line: Toxicity in BALB/c mouse infected with Trypanosomal Trypanosoma cruzi MHOM/Pe/2011/Arequipa(DTU V) assessed as effect on CK-MB level at 20 mg/kg, po administered for 5 days starting at 9 days post infection and measured after 2 days post treatment. In kind it is organism-based. The conditions noted are these: in vivo, 120 h, time 5 day.
For data set [20], the system named is Trypanosoma cruzi. As to the kind of experiment: Inhibition of mitochondrial membrane potential in Trypanosoma cruzi MHOM/Pe/2011/Arequipa(DTU V) epimastigote form at IC25 concentration after 72 hrs by Rho (FITC-A) staining based flow cytometric analysis. In kind it is functional.
The nature of data set [21]: Toxicity in BALB/c mouse infected with Trypanosomal Trypanosoma cruzi MHOM/Pe/2011/Arequipa(DTU V) assessed as effect on LDH level at 20 mg/kg, po administered for 5 days starting at 9 days post infection and measured after 2 days post treatment. Conditions: in vivo, 120 h, time 5 day. It counts as organism-based.
A short description of data set [22]: Toxicity in BALB/c mouse infected with Trypanosomal Trypanosoma cruzi MHOM/Pe/2011/Arequipa(DTU V) assessed as effect on […] level at 20 mg/kg, po administered for 5 days starting at 100 days post infection and measured after 2 days post treatment. Conditions: in vivo, 120 h, time 5 day. In kind it is organism-based.
Data set [23] in a line: Toxicity in BALB/c mouse infected with Trypanosomal Trypanosoma cruzi MHOM/Pe/2011/Arequipa(DTU V) assessed as effect on urea level at 20 mg/kg, po administered for 5 days starting at 100 days post infection and measured after 2 days post treatment. It counts as organism-based. The conditions noted are these: in vivo, 120 h, time 5 day.
Data set [24] relates to Trypanosoma cruzi. As to the kind of experiment: Antitrypanosomal activity against Trypanosoma cruzi MHOM/Pe/2011/Arequipa(DTU V) amastigote form infected in Vero cells assessed as parasite growth inhibition at 50 uM incubated for 72 hrs by Giemsa-staining based assay relative to control. It counts as functional.
Data set [25] in a line: Toxicity in BALB/c mouse infected with Trypanosomal Trypanosoma cruzi MHOM/Pe/2011/Arequipa(DTU V) assessed as effect on ALT/GPT level at 20 mg/kg, po administered for 5 days starting at 9 days post infection and measured after 2 days post treatment. It counts as organism-based. The conditions noted are these: in vivo, 120 h, time 5 day.
For data set [26], the system named is Trypanosoma cruzi. As to the kind of experiment: Antitrypanosomal activity against Trypanosoma cruzi MHOM/Pe/2011/Arequipa(DTU V) amastigote form infected in BALB/c mouse assessed as reduction in parasitaemia at 20 mg/kg, po for 5 days and measured after 55 days post infection. It counts as functional, organism-based. The conditions noted are these: time 5.0 day.

A short description of data set [27]: Toxicity in BALB/c mouse infected with Trypanosomal Trypanosoma cruzi MHOM/Pe/2011/Arequipa(DTU V) assessed as effect on uric acid level at 20 mg/kg, po administered for 5 days starting at 9 days post infection and measured after 2 days post treatment. In kind it is organism-based. Conditions: in vivo, 120 h, time 5 day.
A short description of data set [28]: Toxicity in BALB/c mouse infected with Trypanosomal Trypanosoma cruzi MHOM/Pe/2011/Arequipa(DTU V) assessed as reduction in survival at 20 mg/kg, po administered for 5 days starting at 100 days post infection and measured up to 145 days post infection. In kind it is organism-based. Conditions: in vivo, 120 h, time 5 day.
Data set [29] is described as follows: Toxicity in BALB/c mouse infected with Trypanosomal Trypanosoma cruzi MHOM/Pe/2011/Arequipa(DTU V) assessed as effect on ALP level at 20 mg/kg, po administered for 5 days starting at 100 days post infection and measured after 2 days post treatment. The conditions noted are these: in vivo, 120 h, time 5 day. In kind it is organism-based.
The nature of data set [30]: Toxicity in BALB/c mouse infected with Trypanosomal Trypanosoma cruzi MHOM/Pe/2011/Arequipa(DTU V) assessed as effect on CK-MB level at 20 mg/kg, po administered for 5 days starting at 100 days post infection and measured after 2 days post treatment. It counts as organism-based. Conditions: in vivo, 120 h, time 5 day.
Data set [31] is described as follows: Toxicity in BALB/c mouse infected with Trypanosomal Trypanosoma cruzi MHOM/Pe/2011/Arequipa(DTU V) assessed as effect on total bilirubin level at 20 mg/kg, po administered for 5 days starting at 100 days post infection and measured after 2 days post treatment. It counts as organism-based. Conditions: in vivo, 120 h, time 5 day.
Data set [32] can be described thus: Toxicity in BALB/c mouse infected with Trypanosomal Trypanosoma cruzi MHOM/Pe/2011/Arequipa(DTU V) assessed as effect on total bilirubin level at 20 mg/kg, po administered for 5 days starting at 9 days post infection and measured after 2 days post treatment. Conditions: in vivo, 120 h, time 5 day. It counts as organism-based.

With `CC(C)c1cc2c(cc1O)[C@@]1(C)CCC[C@@]3(C)CO[C@@H](C2=O)[C@@H]31`, the IC50 turned out to be 62.8 µM in [1], 952 µM in data set [2], 51 µM in data set [3] and 60.8 µM in data set [4].
For `CC(C)c1cc2c(cc1O)[C@@]1(C)CCC[C@@](C)(C=O)[C@@H]1CC2` [18-OXOFERRUGINOL], in that order: 48.7 µM, 106 µM, 59.5 µM and 63 µM.
As to `CC(C)c1cc2c(cc1O)[C@@]1(C)CCC[C@@]3(C)CO[C@@H]([C@@H]2O)[C@@H]31`, the IC50 in data set [1] turned out to be 34.6 µM; in [2] it was 763 µM; in data set [3], 31.1 µM; in data set [4], 36.7 µM.
For the compound `O=C(Cn1ccnc1[N+](=O)[O-])NCc1ccccc1` [BENZNIDAZOLE], the Activity is on record as 28.5% in [5]; “Non-Toxic” in [6]; 81.5% in [7]; “Non-Toxic” in [8]; 68.3% in data set [9]; “Non-Toxic” in data set [10]. In addition, the Activity entry in [11] is recorded as “Non-Toxic”; in [13], “Non-Toxic”; in [14] it was 42.9%; in [15], “Non-Toxic”; in [16], “Non-Toxic”; in [17], “Non-Toxic”. Moreover, the Activity entry in data set [18], in [19], in data set [21], in data set [22], in [23] and in data set [25] was “Non-Toxic” throughout. Also, the Activity result in [27], in [28], in [29], in data set [30], in [31] and in data set [32] was “Non-Toxic” in each case. Further, the inhibition in [12] is 22.4%; in data set [20] it was 35.4%. In data set [24], the inhibition at 50 µM is 100%. Also, in data set [26], the outcome was Active. The IC50 in [2] was determined as 80.4 µM.
As for `CC(C)C1=CC2=C[C@@H]3OC(=O)[C@]4(C)CCC=C(C2=C(O)C1=O)[C@]34C`, the concentration for half-maximal inhibition (IC50) stood at 95.3 µM in data set [1], 222 µM in [2], 75.9 µM in data set [3] and 110 µM in [4].
Taken in the same sequence, the figures for `COC(=O)[C@]1(C)CCC[C@]2(C)c3ccc(C(C)C)c(O)c3CC[C@@H]12` were 71.2 µM, 102 µM, 75 µM and 103 µM.
Taken in the same sequence, the figures for `CC(C)C1=CC(=O)C2=C(C=C[C@H]3C(C)(C)CCC[C@]23C)C1=O` were 19.2 µM, 26.1 µM, 19 µM and 13.5 µM.
Taken in the same sequence, the figures for `CC(C)c1cc2c(cc1O)[C@@]1(C)CCCC(C)(C)[C@@]1(O)OC2=O` were 72.8 µM, 480 µM, 40.5 µM and 91.2 µM.
